Reference: US20260226042A1, “C[…] H[…] PROCESSES FOR PREPARING THE SAME” (OLON S.P.A., priority 2023, published 2026)
Where a name gives a salt, the structure may show the parent alone.

Experiment: Dynamic Vapor Sorption (DVS) Isotherm of Aceclidine HCl (hydration of anhydrous to hemihydrate form)
Type: physicochemical
Description: The conversion from anhydrous to hemihydrate form of Aceclidine HCl (4 mg) was analyzed by a Dynamic Vapor Sorption (DVS) Isotherm.

| Compound | weight when environmental humidity content decreased (DVS, FIG. 4) | reversibility of conversion anhydrous to hemihydrate form (DVS, with decreasing relative humidity, FIG. 4) | hygroscopicity (compared to the corresponding anhydrous form) | conversion into other forms without controlled conditions (handling without humidity-controlled conditions (e.g. glove box)) | weight change at which the hemihydrate form formation is obtained (DVS isotherm, weight change % / relative humidity %, 4 mg sample, FIG. 4) |
| --- | --- | --- | --- | --- | --- |
| CC(=O)OC1CN2CCC1CC2 (centres unmarked) [Aceclidine HCl hemihydrate] | remained stable | irreversible | low hygroscopicity | not subjected to any conversion | – |
| CC(=O)OC1CN2CCC1CC2 (centres unmarked) [Anhydrous Aceclidine HCl, anhydrous Aceclidine HCl, reference compound] | – | – | – | – | about 4% |
